Measured values published in patent US12403141B2, “Deuterated MK2 pathway inhibitors and methods of using the same” (ACLARIS THERAPEUTICS, INC., priority 2019, dated 2025).

Legend:
rat hepatocytes = experiment: In vitro metabolite profile in rat hepatocytes; assay type: in vitro ADME; design: key to UV % at 280-290 nm or observed (+ or --), metabolite M532b (Hydroxylation) / UV % at 280-290 nm or observed (+ or --), metabolite M532d (Hydroxylation) / UV % at 280-290 nm or observed (+ or --), metabolite M532e (Hydroxylation) / UV % at 280-290 nm or observed (+ or --), metabolite M530b (Hydroxylation) / UV % at 280-290 nm or observed (+ or --), metabolite M530d (Hydroxylation) / UV % at 280-290 nm or observed (+ or --), metabolite M530e (Hydroxylation): +: only detected by MS; --: not detected or trace; details: 10 μM; for UV % at 280-290 nm, Parent-T0 min: T0 min (normalized as 100%)
Experimental: (§1) Briefly, each test compound (final concentration of 10 μM containing 0.1% DMSO) was incubated with rat, dog, minipig, monkey, or human hepatocytes (final viable cell density of 1×10^6 cells/mL) at 37° C. with 5% CO2 in HI hepatocyte maintenance media (BIOIVT; Catalog #Z99009) for 120 minutes. Reactions were initiated by combining 200 μL of pre-warmed 2× dosing solution containing 20 μM test compound and 0.2% DMSO in HI maintenance media with 200 μL of pre-warmed hepatocyte solution containing 2×10^6 cells/mL in HI maintenance media. Samples were taken at 0 minutes (T0) and 120 minutes (T120) by quenching the reaction with 1200 μL acetonitrile. After quenching, the samples were sonicated for 2 minutes and then centrifuged at 1400 rpm for 5 minutes. A 1400-μL aliquot of the supernatant was evaporated under a stream of N2 until dry. The dried extracts were then reconstituted with 200 μL acetonitrile: H2O (1:3 v/v), vortexed for 2 minutes and centrifuged at 14000 rpm for 5 minutes. A 2-μL aliquot of the supernatant was injected onto a Xevo UPLC-UV-G2-S Q-Tof system (Waters®) with positive-ion electrospray ionization for analysis. Chromatographic separation was achieved on an Acquity UPLC®BEH C18 column (2.1×50 mm, 1.7 μm; Waters®) by gradient elution using varying proportions of mobile phase A (H2O with 0.1% formic acid) and mobile phase B (acetonitrile with 0.1% formic acid) at a constant flow rate of 400 μL/minute over a total run time of 10 minutes. LC-UV-MS extract ion chromatograms (EIC) of the T120 samples were compared to the T0 samples to identify the major putative metabolites which were named as Mm/z.

[1] = tested on: rat, dog, minipig, monkey, and human hepatocytes; experiment: In vitro metabolite profile in hepatocytes, summary across species; assay type: in vitro ADME; details: hepatocytes from rat, 10 μM, 120 min
Experimental: as §1, with “Chromatographic separation was achieved on an Acquity UPLC®BEH C18 column (2.1×50 mm, 1.7 μm; Waters®) by gradient elution using varying proportions of mobile phase A (H2O with 0.1% formic acid) and mobile phase B (acetonitrile with 0.1% formic acid) at a constant flow rate of 400 μL/minute over a total run time of 10 minutes. LC-UV-MS extract ion chromatograms (EIC) of the T120 samples were compared to the T0 samples to identify the major putative metabolites which were named as Mm/z.” left out

[2] = 120 min, relative to parent at T0

SMILES	UV % at 280-290 nm or observed (+ or --), metabolite M387 (O-dealkylation) (rat hepatocytes; [2])	UV % at 280-290 nm or observed (+ or --), metabolite M530b (Hydroxylation) (rat hepatocytes; [2])	UV % at 280-290 nm or observed (+ or --), metabolite M530c (Hydroxylation) (rat hepatocytes; [2])	UV % at 280-290 nm or observed (+ or --), metabolite M530e (Hydroxylation) (rat hepatocytes; [2])	UV % at 280-290 nm or observed (+ or --), metabolite M563 (O-dealkylation + Glucuronidation) (rat hepatocytes; [2])	UV % at 280-290 nm or observed (+ or --), metabolite M530d (Hydroxylation) (rat hepatocytes; [2])	UV % at 280-290 nm, Parent-T120 min (rat hepatocytes; [2])	UV % at 280-290 nm, Parent-T0 min (rat hepatocytes)	UV % at 280-290 nm or observed (+ or --), metabolite M532b (Hydroxylation) (rat hepatocytes; [2])	UV % at 280-290 nm or observed (+ or --), metabolite M532e (Hydroxylation) (rat hepatocytes; [2])	UV % at 280-290 nm or observed (+ or --), metabolite M532d (Hydroxylation) (rat hepatocytes; [2])	total number of metabolites formed [1]
Cc1cnc(-c2ccnc(C(C)(C)O)n2)cc1-n1c(C)cc(OCc2ncc(F)cc2F)c(Cl)c1=O (atropisomer, axis not shown; (P)) [Example 1-H2, (P)-3-chloro-4-((3,5-difluoropyridin-2-yl)methoxy)-2′-(2-(2-hydroxypropan-2-yl)pyrimidin-4-yl)-5′,6-dimethyl-2H-[1,4′-bipyridin]-2-one]	16.2%	+	1.1%	+	1.06%	--	82.7%	100.0%				
[2H]C([2H])(Oc1cc(C)n(-c2cc(-c3ccnc(C(C)(C)O)n3)ncc2C)c(=O)c1Cl)c1ncc(F)cc1F (single isomer, unassigned) [Example 1-D2, (P)-3-Chloro-4-((3,5-difluoropyridin-2-yl)methoxy-d2)-2′-(2-(2-hydroxypropan-2-yl)pyrimidin-4-yl)-5′,6-dimethyl-2H-[1,4′-bipyridin]-2-one]							84.3%	100.0%	--	+	--	5
